Results as given in PMC6934184, “Selective DNA-PKcs inhibition extends the therapeutic index of localized radiotherapy and chemotherapy” (The Journal of Clinical Investigation, 2019).

Biological target: T1, CASK (Homo sapiens, UniProt O14936)
T1 construct: purchased Thermo Fisher Scientific (Life Technologies) SelectScreen
Assay: SelectScreen LanthaScreen
Format: binding
Conditions: read-out: % displacement
In short: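 SelectScreen broad panel; activity (Z'LYTE, Adapta) plus binding formats. ATP: Km app for CSF1R Z'LYTE; 10 for CAMK1 Adapta. Readout = % per kinase.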

T1 sequence (O14936 whole entry): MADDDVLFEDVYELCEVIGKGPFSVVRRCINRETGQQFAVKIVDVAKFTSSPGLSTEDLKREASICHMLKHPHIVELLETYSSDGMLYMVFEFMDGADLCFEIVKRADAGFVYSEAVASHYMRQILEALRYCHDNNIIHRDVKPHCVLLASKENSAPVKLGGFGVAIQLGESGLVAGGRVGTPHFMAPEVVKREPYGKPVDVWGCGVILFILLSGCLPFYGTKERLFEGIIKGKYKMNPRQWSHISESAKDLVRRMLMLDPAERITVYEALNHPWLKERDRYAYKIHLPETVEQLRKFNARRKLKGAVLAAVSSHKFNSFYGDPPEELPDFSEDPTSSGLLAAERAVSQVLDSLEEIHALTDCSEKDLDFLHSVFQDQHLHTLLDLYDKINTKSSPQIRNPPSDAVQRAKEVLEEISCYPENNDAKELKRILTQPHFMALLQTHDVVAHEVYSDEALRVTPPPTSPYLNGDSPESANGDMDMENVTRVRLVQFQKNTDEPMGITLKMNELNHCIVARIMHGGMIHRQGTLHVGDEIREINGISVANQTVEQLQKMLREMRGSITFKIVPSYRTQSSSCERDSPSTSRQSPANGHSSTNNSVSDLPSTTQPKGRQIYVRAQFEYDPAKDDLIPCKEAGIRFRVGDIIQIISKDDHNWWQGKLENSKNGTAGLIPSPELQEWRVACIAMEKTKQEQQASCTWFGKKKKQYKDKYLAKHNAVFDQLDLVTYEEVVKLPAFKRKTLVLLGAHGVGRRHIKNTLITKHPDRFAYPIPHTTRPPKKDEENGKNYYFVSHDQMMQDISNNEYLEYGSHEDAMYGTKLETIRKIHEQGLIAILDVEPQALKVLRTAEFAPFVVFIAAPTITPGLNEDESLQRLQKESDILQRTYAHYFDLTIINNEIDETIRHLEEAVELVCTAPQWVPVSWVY

CN(C(=O)CN1CCOCC1)c1ccc2sc3c(-c4cccc5c(=O)cc(N6CC7CCC(C6)O7)oc45)cccc3c2c1 [NU5455]
inhibition at 1 µM: -3.1%
